The nature of data set [1]: Perfused brain (PB) kinetics of phenolic metabolites after oral capsule. In kind it is in vivo, Sprague–Dawley rats. Also noted: AUC0-t PB: concentration or dose not given beside the values. As to conditions: for PB versus NPB comparison: perfused versus nonperfused brain. The text has this:
(§1) Statistical analyses were applied depending on the experimental context.

Data set [2] can be described thus: Nonperfused brain (NPB) kinetics of phenolic metabolites after oral capsule. As to conditions: nonperfused brain, oral capsule, 0-24 h, n = 3 per time point. The data set is classed as in vivo, Sprague–Dawley rats. The arrangement: AUC0-t NPB: concentration or dose not given beside the values.
Text: as §1

Data set [3] can be described thus: Targeted metabolomics (UPLC-ESI-QTOF) identification of metabolites in plasma, PB and NPB. As to conditions: P plasma, PB perfused brain, NPB nonperfused brain, 1-24 h after oral capsule.
Experimental: Adult male Sprague–Dawley rats weighing 250–300 g were purchased from the Animal Experimentation Service of the University of Murcia (Murcia, Spain). […] Based on the experimental design shown in Figure 1, one capsule was administered by gavage to each fasting animal. A total of 40 animals were used in the study. Thirty animals received a capsule containing a mixture of different Mediterranean food extracts, while ten animals received a capsule with microcrystalline cellulose and served as the control group. […] To minimize animal use in accordance with the 3Rs principle, two control animals were sacrificed at each time point (one PB and one NPB). These controls served to identify potential endogenous compounds or background signals not related to the extract administration. All animals were fasted overnight prior to gavage and euthanized with carbon dioxide.
Plasma samples were extracted with ACN:formic acid (98:2, v/v), centrifuged and evaporated in a speed vacuum concentrator (Savant SPD14 0DDA). The evaporated samples were resuspended in 100 μL MeOH and filtered through 0.22 μm regenerated cellulose filters (Minisart Sartorius, Madrid, Spain). Next, half of the animals at each time point were perfused with ice-cold phosphate-buffered saline, and the blood-free brain was dissected out immediately and stored at – 80 °C until analysis, as previously reported.[37],[48]
Approximately 400 mg of brain tissue (perfused or nonperfused) was weighed and extensively washed with cold PBS to avoid external blood contamination. After weighting, the samples were placed in 2 mL screw cap tubes. […] The evaporated samples were resuspended in 100 μL MeOH and filtered through 0.22 μm regenerated cellulose filters.
We performed a targeted metabolomic analysis using an ultrahigh-performance liquid chromatographic system (UPLC) coupled to a quadrupole-time-of-flight (QTOF) mass spectrometer. The phenolic compounds were separated using an Agilent Poroshell 120 column (100 mm × 3 mm, 2.7 μm) and a 5 μL injection volume. […] The flow rate was set constant at 0.4 mL/min. The spectra were acquired in the m/z range from 100 to 1100, in negative polarity mode and an acquisition rate of 1.5 spectra per second. Quantitative data were processed using the Mass HunterQualitative Analysis software (version B.08.00, Agilent). A target screening strategy was applied for the qualitative analysis of possible metabolites derived from the consumption of the Mediterranean blend. […] These compounds encompass derived metabolites conjugated (glucuronides, sulfates, and sulfoglucuronides, among others). The exact mass of the proposed compound was extracted using an extraction window of 0.01 m/z. Metabolite quantification was performed by integrating the peak areas of their extracted ion chromatograms (EICs). Compounds with available standards were quantified using calibration curves derived from the respective standards, while other metabolites were semiquantified based on their peak area values.
Data set [4] in a line: Plasma pharmacokinetics of phenolic metabolites after oral capsule of (poly)phenol-rich Mediterranean extract mixture. As to conditions: for AUC0-t plasma / MRT0-t plasma / T1/2 plasma / Tmax plasma: oral capsule, 0-24 h, n = 6 per time point; for Cmax: read-out: Cmax plasma, oral capsule, 0-24 h, n = 6 per time point.
Experimental: Adult male Sprague–Dawley rats weighing 250–300 g were purchased from the Animal Experimentation Service of the University of Murcia (Murcia, Spain). […] Animals were maintained in a temperature-controlled environment with a 12 h light-dark cycle. […] Based on the experimental design shown in Figure 1, one capsule was administered by gavage to each fasting animal. A total of 40 animals were used in the study. Thirty animals received a capsule containing a mixture of different Mediterranean food extracts, while ten animals received a capsule with microcrystalline cellulose and served as the control group. At each time point (1, 3, 6, 8, and 24 h postadministration), six animals from the extract group were sacrificed, three with transcardial perfusion using saline (PB) and three without perfusion (NPB), to assess the distribution of extract-derived metabolites in plasma and brain. To minimize animal use in accordance with the 3Rs principle, two control animals were sacrificed at each time point (one PB and one NPB). […] All animals were fasted overnight prior to gavage and euthanized with carbon dioxide.
Blood samples collected by cardiac puncture in sodium heparin tubes at each time point after sacrifice were immediately centrifuged at 14,000 × g for 15 min at 4 °C, and the plasma was stored at −80 °C until their analysis. Plasma samples were extracted with ACN:formic acid (98:2, v/v), centrifuged and evaporated in a speed vacuum concentrator (Savant SPD14 0DDA). The evaporated samples were resuspended in 100 μL MeOH and filtered through 0.22 μm regenerated cellulose filters (Minisart Sartorius, Madrid, Spain).
We performed a targeted metabolomic analysis using an ultrahigh-performance liquid chromatographic system (UPLC) coupled to a quadrupole-time-of-flight (QTOF) mass spectrometer. The phenolic compounds were separated using an Agilent Poroshell 120 column (100 mm × 3 mm, 2.7 μm) and a 5 μL injection volume. The mobile phases used were 0.1% formic acid in water (A) and 0.1% formic acid in ACN (B), and the gradient was: 0–3 min, 5–15% B; 3–11 min, 15–30% B; 11–14 min, 30–50% B, 14–16 min, 50–90% B. Finally, the B content was decreased to the initial conditions (5%) in 1 min, and the column re-equilibrated for 4 min. The flow rate was set constant at 0.4 mL/min. The spectra were acquired in the m/z range from 100 to 1100, in negative polarity mode and an acquisition rate of 1.5 spectra per second.
Setting [5] is: perfused brain, oral capsule, 0-24 h, n = 3 per time point.

Structures can show the parent of a compound that is named as a salt.

As to `O=S(=O)(O)Oc1cc(CCO)ccc1O` [hydroxytyrosol 3-O-sulfate], in data set [1] (setting [5]), the “AUC0-t PB” value was 16 ± 7.8 pmol·h/g, the “Cmax PB” value was determined as 3.4 ± 3.1 pmol/g tissue, the “MRT0-t PB” value is on record as 11 ± 5.9 h and the “T1/2 PB” value is 7.3 ± 3.6 h. Further, the “Tmax PB” value in data set [1] (setting [5]) is on record as 2.7 ± 2.9 h. In data set [2], the “AUC0-t NPB” value came out at 60 ± 8.4 pmol·h/g, the “Cmax NPB” value was 9.7 ± 5.7 pmol/g tissue, the “MRT0-t NPB” value was 7.1 ± 3.1 h and the “T1/2 NPB” value came out at 7.0 ± 0.7 h. In addition, the “Tmax NPB” value in data set [2] was 3.0 ± 0.0 h. Moreover, in data set [3], the occurrence entry was “PB, NPB, P”. Moreover, the occurrence entry in data set [3] (listed as hydroxytyrosol 3-sulfate) was “identified in plasma, perfused brain (PB), and nonperfused brain (NPB)”. In addition, in data set [4], the AUC0-t plasma was 1.432 ± 0.648 µM·h, the MRT0-t plasma was 4.3 ± 1.0 h, the T1/2 plasma worked out at 4.0 ± 2.3 h and the Tmax plasma is on record as 1.4 ± 0.9 h. Besides, the Cmax (as a rule, the highest concentration seen after dosing) in data set [4] amounted to 303 ± 45 nM.
With hydroxyphenylacetic acid sulfate, the occurrence result in data set [3] is “PB, NPB, P”.
For the compound `COc1cc(CCO)ccc1OS(=O)(=O)O` [homovanillic alcohol sulfate], the “PB versus NPB comparison” value in data set [1] is “higher concentrations in PB”. Besides, the occurrence entry in data set [3] is on record as “PB, NPB, P”.
For `O=C1CCC(Cc2ccc(O)c(OS(=O)(=O)O)c2)O1` (stereo not drawn) [5-(3,4-dihydroxyphenylvalerolactone) sulfate], the occurrence entry in data set [3] is “undetectable in both PB and NPB”. Besides, the occurrence entry in data set [3] (listed as 5-(3,4-dihydroxyphenyl)valerolactone sulfate) was “exclusively detected in plasma”. Moreover, in data set [4], the AUC0-t plasma was determined as 0.113 ± 0.078 µM·h, the MRT0-t plasma worked out at 31 ± 44 h, the T1/2 plasma worked out at 19 ± 29 h and the Tmax plasma came out at 4.5 ± 1.7 h. Moreover, the Cmax in data set [4] came to 12.1 ± 5 nM.
On to `O=C(O)CCc1ccc(O)c(OS(=O)(=O)O)c1` [dihydrocaffeic acid 3-O-sulfate], for which the occurrence result in data set [3] is listed as “exclusively detected in plasma”. Moreover, in data set [4], the AUC0-t plasma is 0.077 ± 0.031 µM·h, the MRT0-t plasma was found to be 9.0 ± 2.5 h, the T1/2 plasma is given as 6.0 ± 1.6 h and the Tmax plasma worked out at 4.5 ± 1.7 h. Moreover, in data set [4], the Cmax came out at 9.6 ± 4.5 nM.
Turning to “hydroxyphenyl propionic acid sulfate [hydroxyphenyl propionic acid sulfate peak-1]”, the occurrence result in data set [3] was “PB, NPB, P”.
In the case of `COc1ccc(C2CC(=O)c3c(O)cc(O)cc3O2)cc1O[C@@H]1O[C@H](C(=O)O)[C@@H](O)[C@H](O)[C@H]1O` (stereo partly drawn) [hesperetin 3′-O-glucuronide], the occurrence result in data set [3] is reported as “no detectable levels in PB or NPB”. In data set [4], the AUC0-t plasma turned out to be 0.011 ± 0.0013 µM·h, the MRT0-t plasma stood at 23.48 h, the T1/2 plasma came to 14.80 h and the Tmax plasma is on record as 5.7 ± 2.7 h. In addition, the Cmax in data set [4] amounted to 2.7 ± 0.9 nM.
On to `COc1ccc([C@@H]2CC(=O)c3c(O)cc(O[C@@H]4O[C@H](C(=O)O)[C@@H](O)[C@H](O)[C@H]4O)cc3O2)cc1O` [hesperetin 7-O-glucuronide], for which, in data set [3], the occurrence result is “no detectable levels in PB or NPB”. In data set [4], the AUC0-t plasma was found to be 0.036 ± 0.012 µM·h, the MRT0-t plasma turned out to be 11 ± 5.8 h, the T1/2 plasma is 7.4 ± 3.4 h and the Tmax plasma is 4.2 ± 2.8 h. Moreover, the Cmax in data set [4] worked out at 4 ± 0.7 nM.
Regarding `COc1ccc(CCC(=O)O)cc1O` [3-(3′-hydroxy-4′-methoxyphenyl)propionic acid)], the “PB versus NPB comparison” value in data set [1] is on record as “higher concentrations in PB”. In addition, the occurrence entry in data set [3] is reported as “PB, NPB, P”.

The record behind these values is PMC12063173, “Metabolic Profiling of a Mediterranean-Inspired (Poly)phenol-Rich Mixture in the Brain: Perfusion Effect and In Vitro Blood–Brain Barrier Transport Validation” (Journal of Agricultural and Food Chemistry, 2025).
